One compound from publication PMC11396746, “Stability Evaluation and Pharmacokinetic Profiling of Vepdegestrant in Rodents Using Liquid Chromatography–Tandem Mass Spectrometry” (Molecules, 2024) can be followed below.

Read-outs that look alike come from different tables or passages of the source. Bounds are passed on as bounds.

This data set in a line: Pharmacokinetic study in male ICR mice. Format: in vivo. To be noted: mouse. Here is the method: Twelve healthy male ICR mice (6 weeks old, 27.5–30.5 g) and 10 healthy male Sprague–Dawley (SD) rats (7 weeks old, 195.5–212.0 g) were acquired from Orient Bio Inc. (Seongnam, Republic of Korea) and used for PK studies. The animals were kept in rooms in a temperature range of 20–25 °C, humidity of 40–60%, and a 12-h light/dark cycle. Before the experiment, mice were fasted for 4 h, whereas rats were fasted for 14 h, with only water provided during the fasting period. After 4 h of drug administration, animals were provided with free access to food and water. All animal experiments were approved by the Institutional Animal Care and Use Committee of the Chungnam National University (202310A-CNU-178; Daejeon, Republic of Korea).
For the PK studies in mice, a vepdegestrant dosing solution was prepared using a combination of DMSO, PEG400, and saline (5:25:70, v/v/v). The dosing solution was administered intravenously (IV, 2 mg/kg) through the tail vein or orally (PO, 5 mg/kg) through a gavage needle. The dose volume for both routes was 10 mL/kg. Blood samples (50 μL) were collected via the retro-orbital plexus at 0.05 (IV only), 0.25, 0.5, 1, 2, 4, 8, and 24 h post vepdegestrant administration using heparin-coated microcapillaries. Blood samples were immediately centrifuged at 12,032 g under 25 °C for 5 min, and plasma aliquots (20 μL) were stored at −20 °C until HPLC-MS/MS analysis.
The collected plasma samples from mice or rats (20 µL) were added with IS (20 µL) and ACN (160 µL). Subsequently, the mixture was vigorously mixed for 10 min and centrifuged at 17,054× g under 25 °C for 10 min. An aliquot of the supernatant (100 μL) was taken, and a volume of 5 μL was injected for HPLC-MS/MS analysis. PK parameters were calculated using Phoenix® 8.3 software (Certara L.P., Princeton, NJ, USA), as described previously.

As to `O=C1CC[C@H](N2Cc3cc(N4CCN(CC5CCN(c6ccc([C@@H]7c8ccc(O)cc8CC[C@@H]7c7ccccc7)cc6)CC5)CC4)ccc3C2=O)C(=O)N1` [vepdegestrant, Vepdegestrant], the Vd (male, ICR, plasma, intravenous, 2 mg/kg, read-out: volume of distribution) was greater than 1 L/kg. For the same compound, under “male, ICR, plasma, IV 2 mg/kg”, the Cmax stood at 2180 ± 442 ng/mL, the MRT came to 4.61 ± 1.43 h, the Tmax was 0.05 h and the clearance is 5.22 mL/min/kg. Further, the half-life (male, ICR, plasma, IV 2 mg/kg) was 3.79 ± 1.15 h. Also, the Vd (male, ICR, plasma, IV 2 mg/kg, read-out: Vss) amounted to 1.43 ± 0.472 L/kg. For the same compound, where the note is “male, ICR, plasma, PO 5 mg/kg”, the maximum concentration (Cmax) turned out to be 393 ± 133 ng/mL, the MRT came to 5.58 ± 1.34 h, the Tmax is 1 h and the half-life was 3.64 ± 1.4 h. Also, the bioavailability (male, ICR, plasma, PO 5 mg/kg vs IV 2 mg/kg, read-out: BA (oral bioavailability)) is 17.9 ± 4.35%. Where the note is “IV 2 mg/kg”, the AUCinf is 6510 ± 1060 ng·h/mL and the AUClast is 6400 ± 1080 ng·h/mL. In addition, under “PO 5 mg/kg”, the AUCinf is 2910 ± 707 ng·h/mL and the AUClast stood at 2870 ± 704 ng·h/mL. Moreover, the “clearance as % of liver blood flow” value (liver blood flow 5.4 L/h/kg) is given as 5.8%.

One may read the Cmax as the highest concentration seen after dosing. For orientation: MRT means a mean duration of stay, worked out from the concentration-time curve. Broadly, the Tmax is the time at which the peak concentration occurs. What is called clearance is the volume of plasma or blood freed of the substance per unit of time. For orientation: half-life means the time in which the quantity being followed falls by half. What is called bioavailability is dose-corrected exposure relative to a reference, in per cent.
